The values that follow come from patent US6008240A, “2-(1H-4(5)-imidazoyl) cyclopropyl derivatives” (Gliatech, Inc., priority 1997, dated 1999).

The structures appear in SMILES notation. Where a name gives a salt, the structure may show the parent alone.

For one assay, the target named is T1, Histamine H3 Receptor (Rattus norvegicus, UniProt Q9QYN8).
T1 construct: from tissue; host or cells: rat cerebral cortex membranes
T1 sequence (Q9QYN8 whole entry): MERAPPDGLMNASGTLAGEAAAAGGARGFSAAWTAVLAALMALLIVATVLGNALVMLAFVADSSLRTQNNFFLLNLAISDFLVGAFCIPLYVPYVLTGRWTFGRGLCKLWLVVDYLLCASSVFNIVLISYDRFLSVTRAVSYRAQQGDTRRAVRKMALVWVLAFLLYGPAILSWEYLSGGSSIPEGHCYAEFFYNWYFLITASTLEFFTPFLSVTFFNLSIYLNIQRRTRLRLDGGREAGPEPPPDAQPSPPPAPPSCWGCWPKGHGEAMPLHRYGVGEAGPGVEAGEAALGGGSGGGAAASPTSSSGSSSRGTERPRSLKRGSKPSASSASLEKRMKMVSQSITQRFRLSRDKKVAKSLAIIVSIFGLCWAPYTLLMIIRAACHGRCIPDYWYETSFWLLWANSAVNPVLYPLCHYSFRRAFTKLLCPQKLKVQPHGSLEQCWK
Kind of assay: In Vitro Histamine H3 Receptor Binding Analysis ([3H]-Nα-methylhistamine, rat cortical membranes).
Settings: not given
As for the experimental part:
Histamine H3 receptor affinity was determined in rat cortical membranes using the H3 selective agonist ligand, [^3 H]-N^α -methylhistamine (78.9 Ci/mmole, DuPont NEN Research Products, Boston, Mass.) according to the method of West et al., (1990) Mol. Pharmacol. 38: 610-613 with modifications. Briefly, animals were sacrificed by decapitation and the cerebral cortex was rapidly removed. Rat cortices were mechanically homogenized with an Omni 1000 motor driven homogenizer in 10 volumes (wt/vol) of Krebs-Ringers Hepes buffer (pH 7.4) containing the following protease inhibitors; EDTA (10 mmol), PMSF (0.1 mM), chymostatin (0.2 mg/50 mL) and leupeptin (0.2 mg/50 mL). The homogenate was centrifuged in a Sorvall at ~40,000 x g for 30 min. The pellet was resuspended by mechanical homogenization in 25 mL water and lysed on ice for 30 min. The homogenate was recentrifuged and the membrane lysis was repeated. The membranes were recentrifuged and the final pellet was resuspended in 14 volumes of water to give approximately 200 μg protein/100 μl final concentration. The suspension was stored at -80° C. prior to use. Protein concentrations were determined by Coomassie Plus Protein Assay (Pierce, Rockford, Ill.).
Nonspecific binding (NSB) was accounted for by the inclusion of thioperamide (10 μM). Samples were incubated for 40 minutes at 25° C. The samples were filtered through glass fiber strips, pre-washed with 0.3% polyethyleneimine, using a Brandell cell harvester. The filters were rapidly washed three times with 4 ml of 25 mM Tris buffer containing 145 mM NaCl (pH 7.4, 4° C.). Filters were transferred to polyethylene minivials and counted in 3.5 ml of scintillation fluid (Ecolume, ICN Biomedicals, Inc.). Using this procedure, the non-specific binding was less than 10% of the total binding and the binding to the glass fiber filters was negligible. Saturation and competition experiments were analyzed with the ReceptorFit saturation and competition curve fitting programs (Lundon Software, Inc., Cleveland, Ohio).
In the case of `C[C@@H](NC(=O)[C@@H]1C[C@H]1c1cnc[nH]1)C1CCCCC1` (mixture of isomers) [Example 6, N-[(R)-1-cyclohexylethyl]-3-(1H-imidazol-4-yl)-trans-(2R,3R)-cyclopropanamide and N-[(R)-1-cyclohexylethyl]-3-(1H-imidazol-4-yl)-trans-(2S,3S)-cyclopropanamide hydrochloride], the affinity corresponds to a Ki of 70 ± 8.6 nM.

Take `O=C(CCCC1CCCCC1)[C@@H]1C[C@H]1c1c[nH]cn1` (racemic) [Example 10, (±)-trans-4-cyclohexyl-1-(2-imidazol-4-ylcyclopropyl) butan-1-one]: affinity was put at a Ki of 97 ± 21 nM.

Regarding `C(#C[C@@H]1C[C@H]1c1c[nH]cn1)CCC1CCCC1` (racemic) [Example 54, (±)-trans-4-(2-(4-Cyclopentylbut-1-ynyl)cyclopropyl)imidazole], affinity was put at a Ki of 1.43 ± 0.33 nM.

On to `C(#C[C@@H]1C[C@H]1c1c[nH]cn1)CCC1CCCCC1` (racemic) [Example 55, (±)trans-4-(2-(4-cyclohexylbut-1-ynyl)cyclopropyl)imidazole], for which the affinity corresponds to a Ki of 1.8 ± 0.64 nM.

As for `O=C(NCc1ccccc1)[C@@H]1C[C@H]1c1c[nH]cn1` (relative stereo) [Example 1, N-(1-benzyl)-3-[(1H-imidazol-4-yl)]-(2R,3R)-trans-cyclopropanamide and N-(1-benzyl)-3-[(1H-imidazol-4-yl)]-(2S,3S)-trans-cyclopropanamide hydrochloride], the Ki (in general, the equilibrium dissociation constant of an inhibitor or competing ligand from its target) was 53 ± 2 nM.

`O=C(NCC1CCCCC1)[C@@H]1C[C@H]1c1c[nH]cn1` (relative stereo) [Example 2, (±)-trans-N-(cyclohexylmethyl)(2-imidazol-4-ylcyclopropyl)formamide] yielded a Ki of 37 ± 4 nM.

The assay is the same for the next values; noted with them: rat cortical membranes; 0.8-1.2 nM [3H]-Nα-methylhistamine; 40 minutes at 25° C.; pH 7.4; read-out: H3 Receptor Ki.
In the case of `C[C@H](NC(=O)[C@@H]1C[C@H]1c1cnc[nH]1)C1CCCCC1` (mixture of isomers) [Example 7, N-[(S)-1-cyclohexylethyl]-3-(1H-imidazol-4-yl)- trans-(2R,3R)-cyclopropanamide and N-[(S)-1-cyclohexylethyl]-3-(1H-imidazol-4-yl)-trans-(2S,3S)-cyclopropanamide hydrochloride], the Ki is 146 ± 13 nM.

For `CN(CC1CCCCC1)C(=O)[C@@H]1C[C@H]1c1c[nH]cn1` (racemic) [Example 11, (±)-trans-N-(cyclohexylmethyl)(2-imidazol-4-ylcyclopropyl)-N-methylformamide], the Ki amounted to 134 ± 1 nM.

Take `c1nc([C@@H]2C[C@H]2COCCCC2CCCCC2)c[nH]1` (racemic) [Example 18, (±)-trans-(3-Cyclohexylpropoxy)(2-imidazol-4-ylcyclopropyl)methane]: the Ki came to 240 ± 6 nM.

As for `OC(CCCC1CCCCC1)[C@@H]1C[C@H]1c1c[nH]cn1` (mixture of isomers) [Example 19, (±)-trans4-Cyclohexyl-1-(2-imidazol-4-ylcyclopropyl)butan-1-ol], the Ki is 160 ± 9 nM.

Turning to `N[C@H](Cc1ccc(Br)cc1)C(=O)N[C@@H]1C[C@H]1c1c[nH]cn1` (racemic) [Example 43, (1R,2R)-trans-(±)-2-Amino-3-(4-bromophenyl)-N-(2-imidazol-4-ylcyclopropyl)propanamide], the inhibitory constant (Ki) was 13.7 ± 1.5 nM.

Consider `CC1CCCCN1CCCNC(=O)[C@@H]1C[C@H]1c1c[nH]cn1` (relative stereo) [Example 3, (±)-trans-(2-imidazol-4-ylcyclopropyl)-N-(3-((±)-2-methylpiperidyl)propyl)formamide], for which the Ki was found to be 659 ± 52 nM.

For the compound `O=C(Nc1ccccc1)[C@@H]1C[C@H]1c1c[nH]cn1` (relative stereo) [Example 5, N-(phenyl)-3-(1H-imidazol-4-yl)-trans-(2R,3R)-cyclopropanamide and N-(phenyl)-3-(1H-imidazol-4-yl)-trans-(2S,3S)-cyclopropanamide hydrochloride], the Ki was determined as 267 ± 26 nM.

Turning to `O=C(NCC12CC3CC(CC(C3)C1)C2)[C@@H]1C[C@H]1c1c[nH]cn1` (relative stereo) [Example 8, (±)-trans-N-(adamantanylmethyl) (2-imidazol-4-ylcyclopropyl)formamide], the Ki was found to be 55 ± 6 nM.
